Laboratory results from PubChem BioAssay (NCI).
Where “and” joins values, the source holds several entries; their conditions need not be identical. Equal entries are not always repeated.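 1) Cells in 96-well plates. 2) Compound, 48 h, 5 concentrations. 3) Linear interpolation between surrounding doses. 4) Unreached endpoint = highest concentration. Abbreviation: GI50, concentration required for 50% inhibition of growth. Definition used: TGI = concentration required for complete inhibition of growth.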

Legend:
Assay in all cases: inhibition of tumour cell growth, NCI panel, 48 h
786-0 renal = test system: 786-0 renal
DLD-1 colon = test system: DLD-1 colon
HOP-62 NSCLC = test system: HOP-62 NSCLC
KM20L2 colon = test system: KM20L2 colon
NCI-H226 lung = test system: NCI-H226 lung
OVCAR-4 ovarian = test system: OVCAR-4 ovarian
OVCAR-8 ovarian = test system: OVCAR-8 ovarian
SF-268 CNS = test system: SF-268 CNS
DU-145 prostate = test system: DU-145 prostate
HS 578T breast = test system: HS 578T breast

O=S(=O)(/C=C/CS(=O)(=O)c1ccccc1)c1ccccc1
TGI (786-0 renal): 55.6 µM | TGI (DLD-1 colon): > 100 µM | TGI (HOP-62 NSCLC): 46.2 µM | TGI (KM20L2 colon): 74.2 µM | TGI (NCI-H226 lung): 61.9 µM | TGI (OVCAR-4 ovarian): > 100 µM | TGI (OVCAR-8 ovarian): 32.5 µM | TGI (SF-268 CNS): > 100 µM

CC(=O)O[C@H]1CCC2[C@@H]3CCC4c5nonc5CC[C@]4(C)C3CC[C@@]21C (stereo partly specified)
TGI (786-0 renal): > 10 µM | TGI (DLD-1 colon): > 10 µM | TGI (HOP-62 NSCLC): > 10 µM | TGI (KM20L2 colon): > 10 µM | TGI (NCI-H226 lung): > 10 µM | TGI (OVCAR-4 ovarian): > 10 µM | TGI (OVCAR-8 ovarian): > 10 µM | TGI (SF-268 CNS): > 10 µM

COc1ccc2nc3cc(Cl)ccc3c(SCC(=O)Nc3ccccc3-c3ccccc3NC(=O)CSc3c4ccc(Cl)cc4nc4ccc(OC)cc34)c2c1
TGI (786-0 renal): > 100 µM | TGI (DLD-1 colon): > 100 µM | TGI (HOP-62 NSCLC): > 100 µM | TGI (KM20L2 colon): > 100 µM | TGI (NCI-H226 lung): > 100 µM | TGI (OVCAR-4 ovarian): > 100 µM | TGI (OVCAR-8 ovarian): > 100 µM | TGI (SF-268 CNS): > 100 µM

O=C1/C(=N\O)S(=O)(=O)c2ccccc21
TGI (786-0 renal): > 100 µM | TGI (DLD-1 colon): > 100 µM | TGI (HOP-62 NSCLC): > 100 µM | TGI (KM20L2 colon): > 100 µM | TGI (NCI-H226 lung): > 100 µM | TGI (OVCAR-4 ovarian): > 100 µM | TGI (OVCAR-8 ovarian): > 100 µM | TGI (SF-268 CNS): > 100 µM

O=c1c(O)c(-c2ccc(O)c(O)c2)oc2cc(O)cc(O)c12
GI50 (786-0 renal): 21.9 µM | TGI (786-0 renal): > 100 µM | TGI (DLD-1 colon): > 100 µM | GI50 (DU-145 prostate): 20 µM | TGI (DU-145 prostate): > 100 µM | GI50 (HOP-62 NSCLC): 15.6 µM | TGI (HOP-62 NSCLC): > 100 µM | GI50 (HS 578T breast): 4.12 µM | TGI (HS 578T breast): > 50.7 µM | TGI (KM20L2 colon): > 100 µM | GI50 (NCI-H226 lung): 16.3 µM | TGI (NCI-H226 lung): 68.5 µM | GI50 (OVCAR-4 ovarian): 33.3 µM | TGI (OVCAR-4 ovarian): > 100 µM | GI50 (OVCAR-8 ovarian): 14.1 µM | TGI (OVCAR-8 ovarian): > 100 µM | GI50 (SF-268 CNS): 10.2 µM | TGI (SF-268 CNS): 75.5 µM and > 100 µM

COC1=C(C)C(=O)c2c(cc3c(c2O)C(C)(CCC=C(C)C)C(C)O3)C1=O (stereo unspecified)
TGI (786-0 renal): > 100 µM | TGI (DLD-1 colon): > 100 µM | TGI (HOP-62 NSCLC): 34.1 µM | TGI (KM20L2 colon): > 100 µM | TGI (NCI-H226 lung): 37.5 µM | TGI (OVCAR-4 ovarian): > 100 µM | TGI (OVCAR-8 ovarian): > 100 µM | TGI (SF-268 CNS): > 100 µM

COC(=O)C(CC1=C(O)Nc2ccccc2N1)/C(=N/NC(N)=O)C(=O)Nc1ccccc1C (stereo unspecified)
TGI (786-0 renal): > 100 µM | TGI (DLD-1 colon): > 100 µM | TGI (HOP-62 NSCLC): > 100 µM | TGI (KM20L2 colon): > 100 µM | TGI (NCI-H226 lung): > 100 µM | TGI (OVCAR-4 ovarian): > 100 µM | TGI (OVCAR-8 ovarian): > 100 µM | TGI (SF-268 CNS): 45.2 µM

COc1cccc(NC(=O)CC(=O)N2N=C(N3c4ccccc4Sc4ccccc43)CC2c2ccccc2)c1 (stereo unspecified)
TGI (786-0 renal): > 100 µM | TGI (DLD-1 colon): > 100 µM | TGI (HOP-62 NSCLC): > 100 µM | TGI (KM20L2 colon): > 100 µM | TGI (NCI-H226 lung): > 100 µM | TGI (OVCAR-4 ovarian): > 100 µM | TGI (OVCAR-8 ovarian): > 100 µM | TGI (SF-268 CNS): > 100 µM

CCc1ccccc1NC(=O)/C(N=O)=C(/C)O
TGI (786-0 renal): > 100 µM | TGI (DLD-1 colon): > 100 µM | TGI (HOP-62 NSCLC): > 100 µM | TGI (KM20L2 colon): > 100 µM | TGI (NCI-H226 lung): > 100 µM | TGI (OVCAR-4 ovarian): > 100 µM | TGI (OVCAR-8 ovarian): > 100 µM | TGI (SF-268 CNS): > 100 µM

C[CH2][Sn]([CH2]C)([O]C(=O)c1ccccc1F)[O][Sn]([CH2]C)([CH2]C)[O]C(=O)c1ccccc1F
GI50 (786-0 renal): 25.2 µM | TGI (786-0 renal): > 56.6 µM | GI50 (DLD-1 colon): 18.4 µM | TGI (DLD-1 colon): 54.7 µM | GI50 (HOP-62 NSCLC): > 100 µM | TGI (HOP-62 NSCLC): > 100 µM | GI50 (KM20L2 colon): > 51.2 µM | TGI (KM20L2 colon): > 77.9 µM | GI50 (NCI-H226 lung): 20.2 µM | TGI (NCI-H226 lung): 37.6 µM | GI50 (OVCAR-4 ovarian): > 51.7 µM | TGI (OVCAR-4 ovarian): > 82.8 µM | GI50 (OVCAR-8 ovarian): > 62 µM | TGI (OVCAR-8 ovarian): > 100 µM | GI50 (SF-268 CNS): 23.2 µM | TGI (SF-268 CNS): 50.7 µM

CCc1cccc(C)c1NC(=O)C1=C(C)NC(C)=C(C(=O)Nc2c(C)cccc2CC)C1c1ccc2c(c1)OCO2
TGI (786-0 renal): 33.2 µM | TGI (DLD-1 colon): 47.5 µM | TGI (HOP-62 NSCLC): 36.9 µM | TGI (KM20L2 colon): 62.8 µM | TGI (NCI-H226 lung): 49.5 µM | TGI (OVCAR-4 ovarian): 66.1 µM | TGI (OVCAR-8 ovarian): > 100 µM | TGI (SF-268 CNS): 59.5 µM

O=C1C(c2cnc3ccccc3n2)=C(O)c2ccccc21
TGI (786-0 renal): > 100 µM | TGI (DLD-1 colon): > 100 µM | TGI (DU-145 prostate): > 100 µM | TGI (HOP-62 NSCLC): > 100 µM | TGI (HS 578T breast): > 100 µM | TGI (KM20L2 colon): > 100 µM | TGI (NCI-H226 lung): > 100 µM | TGI (OVCAR-4 ovarian): > 100 µM | TGI (OVCAR-8 ovarian): > 100 µM | TGI (SF-268 CNS): > 100 µM

COc1cc2c(cc1OC)[C@@H](Nc1ccc(F)cc1)C1COC(=O)[C@@H]1C2c1cc(OC)c(O)c(OC)c1 (stereo partly specified)
TGI (786-0 renal): 2.51 µM | TGI (DLD-1 colon): 40.5 µM | TGI (HOP-62 NSCLC): 2.49 µM | TGI (KM20L2 colon): > 54.2 µM | TGI (NCI-H226 lung): 1.64 µM | TGI (OVCAR-4 ovarian): > 85.8 µM | TGI (OVCAR-8 ovarian): > 38.8 µM | TGI (SF-268 CNS): > 67.1 µM

O=C(NC(=Nc1ccccc1)SCCSC(=Nc1ccccc1)NC(=O)c1cccs1)c1cccs1
TGI (786-0 renal): > 100 µM | TGI (DLD-1 colon): > 100 µM | TGI (HOP-62 NSCLC): > 100 µM | TGI (KM20L2 colon): > 100 µM | TGI (NCI-H226 lung): > 100 µM | TGI (OVCAR-4 ovarian): > 100 µM | TGI (OVCAR-8 ovarian): > 100 µM
